Source: patent US20260014146A1, “CDK2 INHIBITORS AND METHODS OF USING THE SAME” (Cedilla Therapeutics, Inc., priority 2022, published 2026)
pIC50: −log10 of the molar value.

Legend:
[1] = system: Kuramochi cells labeled with mApple-H2B; assay: IncuCyte cell proliferation assay; type: cell-based; settings: Kuramochi RB-WT, cell count 0 to 72 hours; method calls it GI50
Method: IncuCyte® assay was used to measure the effect of disclosed compounds on cell proliferation. Fluorescent microscopy images of cells were taken immediately after compound treatment and 72 hours later. Image analysis software was used to obtain cell counts as a function of compound concentration. Kuramochi cells labeled with mApple-H2B were seeded on 384-well assay-ready plates. Plates were placed in an IncuCyte® (Sartorius) and scanned at 0 and 72 hours. IncuCyte® software was used to count the number of fluorescent nuclei in each well. The fold change in cell count from 0 to 72 hours in wells treated with increasing compounds concentrations (10 pts, 1/2 log dilution, 20 μM top concentration) was normalized to DMSO control wells. The normalized cell counts were fit with dose response curves and a GI50 was calculated.

[2] = target: T1, CDK2/Cyclin E1 (Homo sapiens (Human), UniProt P24941); assay: ADP-Glo Luminescent Kinase Assay, ADPGLO (CDK2/E1-37C); type: biochemical; settings: 0.18 nM CDK2/Cyclin E1, 100 μM ATP, 1.5 μM Histone H1, 37° C.; read-out: Pharmaron ADPGLO (CDK2/E1-37C): IC50
Method: Inhibition of CDK2/Cyclin E1 activity by the presence of small molecules was evaluated using ADP-Glo Luminescent Kinase Assay (Promega). Activated CDK2/Cyclin E1 was incubated with its substrate Histone H1 (SignalChem H10-54N) in the kinase reaction buffer (100 μM ATP, 50 mM HEPES pH 7.5, 10 mM MgCl2, 1 mM EDTA, 2 mM DTT, 0.01% Brij35, 0.5 mg/mL BSA). Luminescence was recorded with an Envision plate reader (PerkinElmer).
Dose titrations of inhibitors in 100% DMSO were combined with 0.36 nM CDK2/Cyclin E1 in reaction buffer. The mixtures were incubated for 60 minutes at 37° C. before the addition of ATP and Histone H1 substrate to initiate the kinase reaction. The final conditions were 0.18 nM CDK2/Cyclin E1, 100 μM ATP, and 1.5 μM Histone H1. The reactions were incubated at 37° C. for 90 minutes before being stopped with the addition of ADP-Glo reagent. This mixture was incubated at room temperature for 60 minutes before Kinase Detection Solution is added to generate luminescence. The stopped reactions were analyzed on an Envision plate reader. The conversion ratios were normalized to yield % activity, plotted against compound concentration, and fit to a four-parameter equation to determine the IC50 for each compound.

[3] = target: T1, CDK2/Cyclin E1; assay: Caliper LabChip EZ Reader mobility shift assay; type: biochemical; settings: 2.5 nM CDK2/Cyclin E1 (14-475), 100 μM ATP, 1.5 μM fluorescent peptide; read-out: Caliper Assay (CDK2/CCNE1): IC50
Method: Inhibition of CDK2/Cyclin E1 activity in the presence of compounds of the present disclosure was evaluated using a Caliper LabChip® EZ Reader mobility shift assay. In the assay, activated CDK2/Cyclin E1 catalyzes the phosphorylation of a fluorescently tagged peptide 5-FAM-QSPKKG-CONH2 (PerkinElmer, FL Peptide 18) which induces a difference in capillary electrophoresis mobility. The peptide substrate and product were measured, and the conversion ratio was used to determine the inhibition (as % activity and IC50 values) of CDK2/Cyclin E1. Reactions contained 50 mM HEPES pH 7.5, 10 mM MgCl2, 1 mM EDTA, 2 mM DTT, 0.01% Brij35, 0.5 mg/mL BSA, 0.1% DMSO, 2.5 nM CDK2/Cyclin E1 (14-475), 100 μM ATP, and 1.5 μM fluorescent peptide substrate.
Dose titrations of inhibitors in 100% DMSO were combined with 3.25 nM CDK2/Cyclin E1 (14-475) and 130 μM of ATP in reaction buffer. The mixtures were incubated for 30 minutes before the addition of fluorescent peptide substrate to initiate the kinase reaction. The final conditions were 2.5 nM CDK2/Cyclin E1 (14-475), 100 μM ATP, and 1.5 μM fluorescent peptide. The reactions were stopped after 100 minutes with the addition of EDTA (6 mM final EDTA concentration). The stopped reactions were analyzed on a Caliper LabChip® EZ Reader II. The conversion ratios were normalized to yield % activity, plotted against compound concentration, and fit to a four-parameter equation to determine the IC50 for each compound.

[4] = system: Kuramochi cells; assay: BrdU cell proliferation assay; type: cell-based; settings: 96 h, developed on day 4, read-out: BrdU - KURAMOCHI.1: IC50
Method: A BrdU assay was used as a measure of proliferation based on the DNA replication process of proliferating cells. BrdU, a pyrimidine analog, is added to the cell culture and incorporated into the DNA of proliferating cells. The presence of the BrdU analog was then measured through a colorimetric ELISA. After fixation and permeabilization of cells, peroxidase-conjugated antibody recognizing BrdU is added and allowed to incubate, followed by thorough washing to remove unbound antibody. In order to quantify the amount of bound antibody, peroxidase substrate is added and produces a color that can be measured at 450 nm.
On day −1, Kuramochi cells (Sekisui XenoTech JCRB0098) were seeded at 2,000 cells/well in columns 2-12 of a 96 well plate (Corning, CLS3596) in 150 uL media and allowed to adhere overnight at 37 degree with 5% CO2. In order to assess specificity of the compounds, Kuramochi RB^KO cells were also plated and treated, as RB^KO cells were not expected to show a proliferative response to CCNE/CDK specific inhibitors.
On day 0, the source plate was prepared by adding 10 mM compounds and performing 3-fold serial dilutions for a 4-point dose response of each compound. Using a multichannel pipette, 2 μL of the contents of the source plate were stamped into an intermediate plate with 500 μL of RPMI 1640 Media, GlutaMAX Supplement (Life Technologies. 61870127) in each well of a Nunc 96 DeepWell™ plate, non-treated 96 DeepWell plate, 2 mL/well, sterile, natural. 60/cs (Sigma Z717274) and mixed thoroughly. 50 uL from row A of this intermediate plate were added to rows A-H of one plate of previously seeded Kuramochi cells, and each subsequent row of the intermediate plate was added to a full plate of cells.
On day 4, the plates were developed using the BrdU ELISA Cell Proliferation Assay according to manufacturer's instructions (Roche, 11647229001). Briefly, BrdU was diluted 1:100 in Gibco®. Opti-MEM® and 20 μL/well was added, shaken for 10 minutes at 350 rpm, and then returned to the incubator for 1 hour. Following incubation, the medium was discarded, and the cells were fixed by adding 200 μL of Fix/Denature solution. The anti-BrdU peroxidase antibody was diluted 1:1000 in OptiMEM, added at 100 μL/well, and incubated while shaking (350 rpm) for one hour. Three washes with PBS were performed to remove any unbound antibody, followed by the addition of 100 μL of substrate solution to each well. […] was then added to halt the reaction, and plates were read out using an Envision spectrophotometer (Perkin Elmer) set to read 450 nm absorbance. Background absorbance values from empty wells were subtracted from all samples and then normalized to DMSO treated wells.

pIC50 [3]	Structure (SMILES)	pIC50 [1]	pIC50 [2]	pIC50 [4]
	COc1ccc(S(=O)(=O)NC(=O)[C@@H](NC(=O)[C@@H]2CN(c3cc(F)cc4ncsc34)CC23CN(C(=O)C2(C(F)(F)F)CC2)C3)[C@@H](C)OCC23CCC(CC2)OC3)cc1 [Compound I-50, (S)-N-((2S,3R)-3-((2-oxabicyclo[2.2.2]octan-4-yl)methoxy)-1-((4-methoxyphenyl)sulfonamido)-1-oxobutan-2-yl)-6-(5-fluorobenzo[d]thiazol-7-yl)-2-(1-(trifluoromethyl)cyclopropane-1-carbonyl)-2,6-diazaspiro[3.4]octane-8-carboxamide]	< 4.70	5.00 to 5.30	
6.00 to 7.00	CNC(=O)[C@@H](NC(=O)[C@@H]1CN(C(=O)c2cnn(Cc3ccccc3)c2)CC12CN(c1ncco1)C2)[C@@H](C)OCC1CCCCC1 [Compound I-2, (S)-6-(1-benzyl-1H-pyrazole-4-carbonyl)-N-((2S,3R)-3-(cyclohexylmethoxy)-1-(methylamino)-1-oxobutan-2-yl)-2-(oxazol-2-yl)-2,6-diazaspiro[3.4]octane-8-carboxamide]	< 4.70		< 5.00
< 5.00	C[C@@H](OCC1CCCCC1)[C@H](NC(=O)[C@@H]1CN(c2cccc3scnc23)CC12CN(C(=O)[C@H]1CC1(C)C)C2)C(=O)N1CCCCC1 [Compound I-8, 6-(benzo[d]thiazol-4-yl)-N-((2S,3R)-3-(cyclohexylmethoxy)-1-oxo-1-(piperidin-1-yl)butan-2-yl)-2-((S)-2,2-dimethylcyclopropanecarbonyl)-2,6-diazaspiro[3.4]octane-8-carboxamide]	< 4.70		5.00 to 5.30
< 5.00	C[C@@H](OCC12CCC(CC1)OC2)[C@H](NC(=O)[C@@H]1CN(C(=O)c2cncs2)CC12CN(c1ncco1)C2)C(C)(C)O [Compound I-3, (S)-N-((3S,4R)-4-(2-oxabicyclo[2.2.2]octan-4-ylmethoxy)-2-hydroxy-2-methylpentan-3-yl)-2-(oxazol-2-yl)-6-(thiazole-5-carbonyl)-2,6-diazaspiro[3.4]octane-8-carboxamide]	< 4.70		< 5.00
6.00 to 7.00	C[C@@H](OCC1CCCCC1)[C@H](NC(=O)[C@@H]1CN(c2cccc3ncsc23)CC12CN(C(=O)[C@H]1CC1(C)C)C2)C(=O)N1CCCCC1 [Compound I-7, (S)-6-(benzo[d]thiazol-7-yl)-N-((2S,3R)-3-(cyclohexylmethoxy)-1-oxo-1-(piperidin-1-yl)butan-2-yl)-2-((S)-2,2-dimethylcyclopropanecarbonyl)-2,6-diazaspiro[3.4]octane-8-carboxamide]	< 4.70		5.00 to 5.30
	C[C@@H](OCC12CCC(CC1)OC2)[C@@H](COC1CCC(c2ccc(C(=O)O)cc2)CC1)NC(=O)[C@@H]1CN(c2cc(F)cc3ncsc23)CC12CN(C(=O)C1(C(F)(F)F)CC1)C2 (stereo partly drawn) [Compound I-47, 4-(4-((2R,3R)-3-((2-oxabicyclo[2.2.2]octan-4-yl)methoxy)-2-((S)-6-(5-fluorobenzo[d]thiazol-7-yl)-2-(1-(trifluoromethyl)cyclopropane-1-carbonyl)-2,6-diazaspiro[3.4]octane-8-carboxamido)butoxy)cyclohexyl)benzoic acid]	4.70 to 5.30	< 5.00	
5.00 to 6.00	C[C@@H](OCC1CCC(F)(F)CC1)[C@H](NC(=O)[C@@H]1CN(C(=O)c2cncs2)CC12CN(c1ncco1)C2)C(C)(C)O [Compound I-4, (S)-N-((3S,4R)-4-((4,4-difluorocyclohexyl)methoxy)-2-hydroxy-2-methylpentan-3-yl)-2-(oxazol-2-yl)-6-(thiazole-5-carbonyl)-2,6-diazaspiro[3.4]octane-8-carboxamide]	< 4.70		< 5.00
< 5.00	C[C@@H](OCC1CCCCC1)[C@H](NC(=O)[C@@H]1CN(c2nccc3scnc23)CC12CN(C(=O)[C@H]1CC1(C)C)C2)C(=O)N1CCCCC1 [Compound I-10, (S)-N-((2S,3R)-3-(cyclohexylmethoxy)-1-oxo-1-(piperidin-1-yl)butan-2-yl)-2-((S)-2,2-dimethylcyclopropanecarbonyl)-6-(thiazolo[4,5-c]pyridin-4-yl)-2,6-diazaspiro[3.4]octane-8-carboxamide]	4.70 to 5.30		< 5.00
< 5.00	C[C@@H](OCC1CCCCC1)[C@H](NC(=O)[C@@H]1CN(c2cccc3[nH]ccc23)CC12CN(C(=O)[C@H]1CC1(C)C)C2)C(=O)N1CCCCC1 [Compound I-14, (S)-N-((2S,3R)-3-(cyclohexylmethoxy)-1-oxo-1-(piperidin-1-yl)butan-2-yl)-2-((S)-2,2-dimethylcyclopropanecarbonyl)-6-(1H-indol-4-yl)-2,6-diazaspiro[3.4]octane-8-carboxamide]	5.30 to 6.30		< 5.00
< 5.00	C[C@@H](OCC1CCCCC1)[C@H](NC(=O)[C@@H]1CN(c2nccc3[nH]ncc23)CC12CN(C(=O)[C@H]1CC1(C)C)C2)C(=O)N1CCCCC1 [Compound I-9, (S)-N-((2S,3R)-3-(cyclohexylmethoxy)-1-oxo-1-(piperidin-1-yl)butan-2-yl)-2-((S)-2,2-dimethylcyclopropanecarbonyl)-6-(1H-pyrazolo[4,3-c]pyridin-4-yl)-2,6-diazaspiro[3.4]octane-8-carboxamide]	< 4.70		< 5.00
